Columns and labels:
SB.mhdgc-1 = test: AC50 for growth inhibition (viability) (log10 M); higher = less potent; settings: SB.mhdgc-1 (hereditary c.1380delA CDH1 gastric cancer)
Summary of the method: (§1)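 Values are log half-maximal activity concentrations from four-parameter fits of DMSO-normalised viability, restricted to high-quality curve classes. Patient-derived gastric cancer cells, hereditary or sporadic, were plated at 500 cells per 1536 well in 5 μL medium and given 23 nL compound in DMSO by pintool across 11 threefold dilutions, the top final concentration being 46 μM. Viability was read by ViewLux luminescence after 48 h and a 30 min CellTiter-Glo step at room temperature.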

SB.msgc-1 = test: as above; settings: SB.msgc-1 (sporadic gastric cancer)
Summary of the method: as §1

SMILES | AC50 for growth inhibition (log10 M) (SB.mhdgc-1) | AC50 for growth inhibition (log10 M) (SB.msgc-1)
Cc1ccccc1C(=O)c1ccc(Nc2ccc(Br)cc2N)cc1Cl [EO-1428] | -4.93 | -4.78
CC[C@H](NC1=C2N=C[NH]C2=NC=N1)C/3=N/C4=C(C(=CC=C4)F)C(=O)N3C5=CC=CC=C5 [CAL-101] | -5.18 | -5.43
CC(C)(C)C(=O)OCOP(=O)(COCCn1cnc2c(N)ncnc21)OCOC(=O)C(C)(C)C [Adefovir dipivoxil] | -6.93 | -5.28
COC1=CC=C(C=C1)/C2=C(O)/C(=O)C3=C(O)C=C(O)C(=C3O2)CC=C(C)C [Icaritin] | -4.88 | -4.63
FC(F)(F)c1ccc(/C=C/c2nc(COc3ccc(CCCCn4ccnn4)cc3)co2)cc1 [Mubritinib] | -6.78 | -7.83
CC(C)(O)c1cc2nc(-c3cnc(N)nc3)nc(N3CCOCC3)c2s1 [GNE-493] | -6.98 | -6.88
C[C@H]1[C@@H](OC(=O)CCC(=O)O)O[C@@H]2O[C@@]3(C)CC[C@H]4[C@H](C)CC[C@@H]1[C@@]24OO3 [Artesunate (AS)] | -5.03 | -5.18
CNC(=O)c1cc(Oc2ccc(NC(=O)Nc3ccc(Cl)c(C(F)(F)F)c3)c(F)c2)ccn1 [Regorafenib] | -4.78 | -4.83
COc1ccc(-c2ccc3c(N4CCOC[C@@H]4C)nc(N4CCOC[C@@H]4C)nc3n2)cc1CO [AZD-8055] | -7.83 | -5.98
O=C(Nc1ncc(-c2cc(C(F)F)nn2-c2c(Cl)cccc2Cl)s1)C1CC1 [BMS-3] | -6.13 | -6.18
CN(C)c1ccc2cc(C(=O)N[C@@H](CCCNC(=N)CCl)C(=O)NCc3ccccc3)ccc2c1 [YW3-56] | -4.78 | -5.03
N[C@@H](Cc1ccc(N(CCCl)CCCl)cc1)C(=O)O [Melphalan] | -6.08 | -5.83
O=C(NCc1ccccc1)[C@H](Cc1ccccc1)NC(=O)[C@H]1O[C@@H]1C(=O)NCCc1ccc(O)cc1 [CAA0225] | -6.48 | -6.08
CN(C)CC(C)(C)CNc1nn2c(-c3ccccc3)nnc2cc1C1CCC1 [Akt-I-1] | -6.33 | -4.68
C[C@H](NC(=O)/C(C#N)=C/c1cccc(Br)n1)c1ccccc1 [WP-1066] | -5.43 | -5.48
CNC1CCC(N(Cc2cccc(-c3ccncc3)c2)C(=O)c2sc3c(F)ccc(F)c3c2Cl)CC1 (centres undefined) [Hh-Ag1.5] | -4.73 | -4.83
CCOC(=O)[C@H](CCc1ccccc1)N[C@@H](C)C(=O)N1[C@H](C(=O)O)C[C@@H]2CCC[C@@H]21 [Ramipril] | -5.18 | -4.73
C#Cc1cccc(Nc2ncnc3cc(OCCOC)c(OCCO)cc23)c1 [OSI-420] | -6.23 | -6.03
O=C(Nc1cc(C(F)(F)F)cc(C(F)(F)F)c1)c1cc(Cl)ccc1O [IMD-0354] | -5.78 | -5.73
CC[C@H]1CN2CCc3cc(OC)c(OC)cc3[C@@H]2C[C@@H]1C[C@H]1NCCc2cc(OC)c(OC)cc21 [Emetine] | -5.68 | -6.83
CCC1=C2CN3C(=O)\C4=C(/C=C3/C2=NC5=CC=C(O)C=C15)[C@@](O)(CC)C(=O)OC4 [SN-38] | -8.48 | -8.08
C\C1=C\N([C@H]2C[C@H](N=[N+]=[N-])[C@@H](CO)O2)C(=O)NC1=O [Zidovudine] | -5.03 | -4.58
NCC(=O)Nc1ccc(-n2nc(C(F)(F)F)cc2-c2ccc3c(ccc4ccccc43)c2)cc1 | -4.68 | -4.63
ClC/1=C(NCCN2CCOCC2)/C(=O)C3=C(C=CC=N3)C1=O [DA-3003-1] | -5.58 | -5.18
CC(=O)NCC(=O)N1[C@@H]2CC[C@H]1c1ccc(Nc3ncc(C(F)(F)F)c(NC4CCC4)n3)cc12 | -5.48 | -5.33
Cc1nn(Cc2ccccc2Cl)c(C)c1CN(C)CC(O)COc1ccc(Cl)cc1 (centres undefined) | -4.78 | -4.73

SMILES | AC50 for growth inhibition (log10 M) (SB.mhdgc-1) | AC50 for growth inhibition (log10 M) (SB.msgc-1)
CC#C[C@]1(O)CC[C@H]2[C@@H]/3CCC/4=C/C(=O)CCC4=C3[C@H](C[C@]12C)C5=CC=C(C=C5)N(C)C [Mifepristone] | -7.23 | -6.63
Cc1ccc(C(=O)Nc2cccc(C(F)(F)F)c2)cc1Nc1nc(-c2cccnc2)nc2c1cnn2C [NVP-BHG712] | -4.83 | -4.78
c1cc(OCCN2CCCCC2)cc(-c2n[nH]c3ccc(-c4nc[nH]n4)cc23)c1 [CC-401] | -4.78 | -4.78
CC/C(=C(\c1ccccc1)c1ccc(OCCN(C)C)cc1)c1ccccc1 [Tamoxifen] | -4.68 | -4.73
CCC(C)SSc1ncc[nH]1 (centres undefined) [PX-12] | -4.63 | -4.58
CN(C)C(=O)c1ccc([S+](=O)([O-])c2ccc(NC(=O)[C@@](C)(O)C(F)(F)F)c(Cl)c2)cc1 [AZD-7545] | -4.88 | -4.73
CCCCCC[C@H]1C(=O)O[C@H](C)[C@H](NC(=O)c2cccc(NC=O)c2O)C(=O)O[C@@H](C)[C@@H]1OC(=O)CC(C)C [Antimycin A] | -7.08 | -7.13
C=C1C(=O)[C@@]23C(CC[C@@H]1[C@H]2O)[C@@]12CO[C@]3(O)[C@@H](O)[C@@H]1C(C)(C)CC[C@@H]2O (some centres undefined) [Oridonin] | -4.98 | -4.73
COC1=CC=C2[N](CCCN(C)C)C=C(C2=C1)C/3=C(/C(=O)NC3=O)C4=C[NH]C5=C4C=CC=C5 [G?-6983] | -6.78 | -4.58
C[N]1C=C(C2=C1C=CC=C2)\C3=C(\C(=O)NC3=O)C4=C5CC(CN)CC[N]5C6=C4C=CC=C6 (centres undefined) [Ro-31-8425] | -4.88 | -4.78
NC/1=N/C(=O)C2=C([NH]C=C2CCC3=CC=C(C=C3)C(=O)N[C@@H](CCC(O)=O)C(O)=O)N1 [Pemetrexed disodium] | -6.33 | -6.23
Cc1ccc([S+](=O)([O-])Nc2cc(Cl)ccc2C(=O)Nc2nc(-c3ccccc3)cs2)cc1 | -4.68 | -5.28
Nc1nc(N)c(N=O)c(OCC2CCCCC2)n1 [NU-6027] | -5.33 | -4.73
O=C(c1ccc(F)c(F)c1Nc1ccc(I)cc1F)N1CC(O)([C@H]2CCCCN2)C1 [Cobimetinib] | -4.78 | -5.28
CCN(CC)CCNC(=O)c1c(C)[nH]c(/C=C2\C(=O)Nc3ccc(F)cc32)c1C [Sunitinib malate] | -5.32 | -4.42
NC(=O)Nc1cc(-c2ccc(CN3CCOCC3)cc2)sc1C(N)=O [AZ-TAK1 Inhibitor] | -4.68 | -4.73
CCN1CCN(CC1)CC(=O)NC2=CC=C(C3=C2C4=C(S3)C=CC=C4)C5=C6O\C(=C/C(=O)C6=CC=C5)N7CCOCC7 | -5.73 | -5.68
c1ccc(CNc2nc(NCc3ccccc3)c3ccccc3n2)cc1 | -5.03 | -5.03
Clc1cc(Cl)cc(CNc2ncncc2-c2ccc3c(c2)OCO3)c1 | -5.28 | -4.78
C[C@]1(O)CC(C1)C2=NC(=C3[N]2C=CN=C3N)C4=CC5=C(C=C4)C=CC(=N5)C6=CC=CC=C6 (centres undefined) [Linsitinib] | -5.03 | -4.78
C#Cc1cccc(Nc2ncnc3cc(OC)c(OCCCCCCC(=O)NO)cc23)c1 [CUDC-101] | -8.28 | -7.53
COc1ccc2[nH]cc(CCNC(C)=O)c2c1 [Melatonin] | -5.33 | -5.83
CC1=C(CC(=O)O)c2cc(F)ccc2/C1=C\c1ccc([S+](C)[O-])cc1 (centres undefined) [Sulindac] | -5.93 | -5.53
O=C(NCC1CCCCN1)c1cc(OCC(F)(F)F)ccc1OCC(F)(F)F (centres undefined) [Flecainide] | -5.03 | -5.03
Cc1cc2c(F)c(Oc3ncnn4cc(OC[C@@H](C)O)c(C)c34)ccc2[nH]1 [Brivanib] | -4.98 | -4.73
CC[C@@H]1/C=C(\C)C[C@H](C)C[C@H](OC)[C@H]2O[C@@](O)(C(=O)C(=O)N3CCCC[C@H]3C(=O)O[C@H](/C(C)=C/[C@@H]3CC[C@H](Cl)[C@H](OC)C3)[C@H](C)[C@@H](O)CC1=O)[C@H](C)C[C@@H]2OC [Pimecrolimus] | -4.98 | -4.93

Reference: the supplement of paper PMC5412046
